Measurements taken from article PMC5054527, “Mechanism of high affinity inhibition of the human urate transporter URAT1” (Scientific Reports, 2016).
Where a chain is given by its changes, count along the chain named. Like-named read-outs stand apart in the source and are kept apart here.

Legend:
Assay in all cases: URAT1 uric acid transport activity assay
Assay type in all cases: cell-based
[1] = target: T1, r-L29M rURAT1 point mutant (Rattus norvegicus, UniProt Q3ZAV1, L29M)
T1 sequence (Q3ZAV1 1-553 L29M): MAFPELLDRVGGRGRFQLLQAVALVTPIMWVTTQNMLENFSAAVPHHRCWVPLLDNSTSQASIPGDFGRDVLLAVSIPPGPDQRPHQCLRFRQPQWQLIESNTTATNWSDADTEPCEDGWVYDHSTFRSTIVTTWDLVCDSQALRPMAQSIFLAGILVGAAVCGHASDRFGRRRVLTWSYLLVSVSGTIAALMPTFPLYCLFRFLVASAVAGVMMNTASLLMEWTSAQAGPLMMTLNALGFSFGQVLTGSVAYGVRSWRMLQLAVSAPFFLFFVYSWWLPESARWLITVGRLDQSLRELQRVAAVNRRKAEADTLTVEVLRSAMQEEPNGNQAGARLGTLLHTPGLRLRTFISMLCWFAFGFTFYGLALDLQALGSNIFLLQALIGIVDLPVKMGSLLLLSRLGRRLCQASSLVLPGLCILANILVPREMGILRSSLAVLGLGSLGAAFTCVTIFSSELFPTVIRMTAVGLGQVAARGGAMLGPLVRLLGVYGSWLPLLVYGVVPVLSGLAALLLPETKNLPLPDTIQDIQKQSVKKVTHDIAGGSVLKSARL
Outline: (§1)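 Cells expressing site-directed rat URAT1 mutants were exposed to inhibitor dilutions for 5 minutes before radiolabelled uric acid (100 μM) was added for 10 minutes. Potency was derived by nonlinear regression of log inhibitor versus response.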

[2] = target: T2, r-M354T rURAT1 point mutant (Rattus norvegicus, UniProt Q3ZAV1, M354T)
T2 construct: expressed in transfected cells; host or cells: HEK-293T
T2 sequence (Q3ZAV1 1-553 M354T): T1 sequence (Q3ZAV1 1-553 L29M) with M29L, M354T
Outline: as §1

[3] = target: T3, r-P27S rURAT1 point mutant (Rattus norvegicus, UniProt Q3ZAV1, P27S)
T3 sequence (Q3ZAV1 1-553 P27S): T1 sequence (Q3ZAV1 1-553 L29M) with P27S, M29L
Outline: as §1

## CCc1oc2ccccc2c1C(=O)c1cc(Br)c(O)c(Br)c1 [benzbromarone]
[1]
  IC50: 21 ± 3.3 µM
[2]
  IC50: 18 ± 1.7 µM
[3]
  IC50: 16 ± 1.7 µM

## O=C1C(CC[S+]([O-])c2ccccc2)C(=O)N(c2ccccc2)N1c1ccccc1 (stereo not shown) [sulfinpyrazone]
[1]; r-L29M, HEPES pH 7.3, 100 μM 14C-uric acid, read-out: IC50 (uric acid transport)
  IC50: 495 ± 152 µM
[2]; r-M354T, HEPES pH 7.3, 100 μM 14C-uric acid, read-out: IC50 (uric acid transport)
  IC50: 304 ± 38 µM
[3]; from IC50 values
  fold higher affinity of r-P27S compared to rURAT1: 2.1 fold
[3]; r-P27S, HEPES pH 7.3, 100 μM 14C-uric acid, read-out: IC50 (uric acid transport)
  IC50: 321 ± 77 µM

## O=C(O)CSc1nnc(Br)n1-c1ccc(C2CC2)c2ccccc12 [lesinurad, 2-((5-bromo-4-(4-cyclopropylnaphthalen-1-yl)-4H-1,2,4-triazol-3-yl)thio)acetic acid]
[1]; r-L29M, MES pH 5.5, 100 μM 14C-uric acid, read-out: IC50 (uric acid transport)
  IC50: 77 ± 6.6 µM
[2]; r-M354T, MES pH 5.5, 100 μM 14C-uric acid, read-out: IC50 (uric acid transport)
  IC50: 56 ± 4.9 µM
[3]; r-P27S, MES pH 5.5, 100 μM 14C-uric acid, read-out: IC50 (uric acid transport)
  IC50: 77 ± 3.2 µM
